The source of these data is ChEMBL document CHEMBL4732190, “Identification of Potent and Long-Acting Single-Chain Peptide Mimetics of Human Relaxin-2 for Cardiovascular Diseases” (J Med Chem, 2021).

One test has as its target T1, Relaxin receptor 1 (Homo sapiens, UniProt Q9HBX9).
T1 sequence (Q9HBX9 whole entry): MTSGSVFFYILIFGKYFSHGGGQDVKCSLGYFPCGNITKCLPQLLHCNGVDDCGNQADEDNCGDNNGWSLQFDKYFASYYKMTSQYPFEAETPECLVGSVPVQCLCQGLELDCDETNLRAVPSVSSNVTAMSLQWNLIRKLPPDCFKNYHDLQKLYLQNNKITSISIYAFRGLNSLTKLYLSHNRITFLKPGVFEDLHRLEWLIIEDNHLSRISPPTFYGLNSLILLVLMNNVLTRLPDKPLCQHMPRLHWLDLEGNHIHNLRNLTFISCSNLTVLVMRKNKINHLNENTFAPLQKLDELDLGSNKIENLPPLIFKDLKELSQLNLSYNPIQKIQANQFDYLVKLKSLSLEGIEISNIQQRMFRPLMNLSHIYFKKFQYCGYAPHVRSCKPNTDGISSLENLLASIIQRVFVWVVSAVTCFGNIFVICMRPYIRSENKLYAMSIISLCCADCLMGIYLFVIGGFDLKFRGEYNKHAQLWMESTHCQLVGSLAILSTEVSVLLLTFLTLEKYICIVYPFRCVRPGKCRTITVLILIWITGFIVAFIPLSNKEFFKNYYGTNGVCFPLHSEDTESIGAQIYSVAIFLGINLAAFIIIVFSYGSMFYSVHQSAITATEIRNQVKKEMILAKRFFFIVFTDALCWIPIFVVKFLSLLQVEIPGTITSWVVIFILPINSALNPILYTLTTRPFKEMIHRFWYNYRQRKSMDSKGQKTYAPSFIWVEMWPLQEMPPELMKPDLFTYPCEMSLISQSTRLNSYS
Put plainly: Agonist activity at RXFP1 endogenously expressed in human OVCAR-5 cells assessed as increase in IBMX-induced cAMP accumulation pretreated with IBMX for 40 mins followed by compound addition and measured after 30 mins by HTRF assay. The format is functional, cell-based. On the technique in general: cAMP levels reflect the balance of adenylyl cyclase and phosphodiesterase activity.

Test [1] addresses T2, Relaxin receptor 1 (Homo sapiens) (UniProt Q9HBX9).
T2 sequence (whole entry): T1 sequence (Q9HBX9 whole entry)
The experiment in a line: Agonist activity at RXFP1 endogenously expressed in human OVCAR-5 cells assessed as increase in IBMX-induced cAMP accumulation pretreated with IBMX for 40 mins followed by compound addition and measured after 30 mins by HTRF assay relative to relaxin. The format is functional, cell-based. Particulars: filed as agonist.

Molecules are shown by their SMILES. pEC50: −log10 of the molar value. Where a SMILES comes first, the peptide text is derived from it.

By pEC50 is commonly meant −log10 of the EC50, conventionally taken in molar units. The term Emax denotes the size of the effect at its maximum, as opposed to the concentration needed. In the case of `CC[C@H](C)[C@H](NC(=O)[C@H](CCC(N)=O)NC(=O)[C@H](C)NC(=O)[C@H](CCCNC(=N)N)NC(=O)[C@@H](NC(=O)[C@H](CC(C)C)NC(=O)[C@H](CCC(=O)O)NC(=O)[C@H](CCCNC(=N)N)NC(=O)CNC(=O)[C@H](CO)NC(=O)[C@H](CC(C)C)NC(=O)[C@H](CCCCN)NC(=O)[C@@H](NC(=O)[C@@H](NC(=O)[C@H](CCC(=O)O)NC(=O)[C@H](CCC(=O)O)NC(C)=O)C(C)C)[C@@H](C)CC)C(C)C)C(=O)N[C@@H](C)C(=O)NC[C@H](C)C(=O)N[C@@H](CO)C(=O)NCC(=O)N[C@@H](CCSC)C(=O)N[C@@H](CO)C(=O)N[C@H](C(=O)N[C@@H](Cc1c[nH]c2ccccc12)C(=O)N[C@@H](CO)C(=O)N[C@@H](CCCCN)C(=O)N[C@@H](CCCNC(=N)N)C(=O)N[C@@H](CO)C(=O)N[C@@H](CC(C)C)C(N)=O)[C@@H](C)O` (HELM PEPTIDE1{[ac].E.E.V.I.K.L.S.G.R.E.L.V.R.A.Q.I.A.[C[C@@H](CN[*:1])C(=O)[*:2]].S.G.M.S.T.W.S.K.R.S.L.[am]}$$$$V2.0), the pEC50 on Relaxin receptor 1 was 6.70. Also, in test [1], the Emax came out at 91%.
With `CC[C@H](C)[C@H](NC(=O)[C@H](CCC(N)=O)NC(=O)[C@H](C)NC(=O)[C@H](CCCNC(=N)N)NC(=O)[C@@H](NC(=O)[C@H](CC(C)C)NC(=O)[C@H](CCC(=O)O)NC(=O)[C@H](CCCNC(=N)N)NC(=O)CNC(=O)[C@H](CO)NC(=O)[C@H](CC(C)C)NC(=O)[C@H](CCCCN)NC(=O)[C@@H](NC(=O)[C@@H](NC(=O)[C@H](CCC(=O)O)NC(=O)[C@H](CCC(=O)O)NC(C)=O)C(C)C)[C@@H](C)CC)C(C)C)C(=O)NC[C@H](C)C(=O)N[C@H](C(=O)N[C@@H](CCC(=O)O)C(=O)NCC(=O)N[C@@H](CCSC)C(=O)N[C@@H](CO)C(=O)N[C@@H](CCCCN)C(=O)N[C@@H](Cc1c[nH]c2ccccc12)C(=O)N[C@@H](CO)C(=O)N[C@@H](CCCCN)C(=O)N[C@@H](CCCNC(=N)N)C(=O)N[C@@H](CCCCN)C(=O)N[C@@H](CCCCN)C(N)=O)[C@@H](C)CC` (HELM PEPTIDE1{[ac].E.E.V.I.K.L.S.G.R.E.L.V.R.A.Q.I.[C[C@@H](CN[*:1])C(=O)[*:2]].I.E.G.M.S.K.W.S.K.R.K.K.[am]}$$$$V2.0), the pEC50 on Relaxin receptor 1 is 6.64. Moreover, the Emax in test [1] is 101%.
With `CC[C@H](C)[C@H](NC(=O)[C@H](CCC(N)=O)NC(=O)[C@H](C)NC(=O)[C@H](CCCNC(=N)N)NC(=O)[C@@H](NC(=O)[C@H](CC(C)C)NC(=O)[C@H](CCC(=O)O)NC(=O)[C@H](CCCNC(=N)N)NC(=O)CNC(=O)[C@H](CO)NC(=O)[C@H](CC(C)C)NC(=O)[C@H](CCCCN)NC(=O)[C@@H](NC(=O)[C@@H](NC(=O)[C@H](CCC(=O)O)NC(=O)[C@H](CCC(=O)O)NC(C)=O)C(C)C)[C@@H](C)CC)C(C)C)C(=O)NC[C@H](C)C(=O)N[C@H](C(=O)N[C@@H](CO)C(=O)NCC(=O)N[C@@H](CCSC)C(=O)N[C@@H](CO)C(=O)N[C@H](C(=O)N[C@@H](Cc1c[nH]c2ccccc12)C(=O)N[C@@H](CO)C(=O)N[C@@H](CCCCN)C(=O)N[C@@H](CCCNC(=N)N)C(=O)N[C@@H](CCCCN)C(=O)N[C@@H](CCCCN)C(N)=O)[C@@H](C)O)[C@@H](C)CC` (HELM PEPTIDE1{[ac].E.E.V.I.K.L.S.G.R.E.L.V.R.A.Q.I.[C[C@@H](CN[*:1])C(=O)[*:2]].I.S.G.M.S.T.W.S.K.R.K.K.[am]}$$$$V2.0), the pEC50 on Relaxin receptor 1 is 6.84. Also, the Emax in test [1] came out at 94%.
For the compound `CC[C@H](C)[C@H](NC(=O)[C@H](CCC(N)=O)NC(=O)[C@H](C)NC(=O)[C@H](CCCNC(=N)N)NC(=O)[C@@H](NC(=O)[C@H](CC(C)C)NC(=O)[C@H](CCC(=O)O)NC(=O)[C@H](CCCNC(=N)N)NC(=O)CNC(=O)[C@H](CO)NC(=O)[C@H](CC(C)C)NC(=O)[C@H](CCCCN)NC(=O)[C@@H](NC(=O)[C@@H](NC(=O)[C@H](CCC(=O)O)NC(=O)[C@H](CCC(=O)O)NC(C)=O)C(C)C)[C@@H](C)CC)C(C)C)C(=O)NC[C@H](C)C(=O)N[C@H](C(=O)N[C@@H](CO)C(=O)NCC(=O)N[C@@H](CCSC)C(=O)N[C@@H](CO)C(=O)N[C@H](C(=O)N[C@@H](Cc1c[nH]c2ccccc12)C(=O)N[C@@H](CO)C(=O)N[C@@H](CCCCN)C(=O)N[C@@H](CCCNC(=N)N)C(=O)N[C@@H](CO)C(=O)N[C@@H](CC(C)C)C(N)=O)[C@@H](C)O)[C@@H](C)CC` (HELM PEPTIDE1{[ac].E.E.V.I.K.L.S.G.R.E.L.V.R.A.Q.I.[C[C@@H](CN[*:1])C(=O)[*:2]].I.S.G.M.S.T.W.S.K.R.S.L.[am]}$$$$V2.0), the pEC50 at Relaxin receptor 1 is 6.30. In test [1], the Emax is 86%.
With `CC[C@H](C)[C@H](NC(=O)[C@H](CCC(N)=O)NC(=O)[C@H](C)NC(=O)[C@H](CCCNC(=N)N)NC(=O)[C@@H](NC(=O)[C@H](CC(C)C)NC(=O)[C@H](CCC(=O)O)NC(=O)[C@H](CCCNC(=N)N)NC(=O)CNC(=O)[C@H](CO)NC(=O)[C@H](CC(C)C)NC(=O)[C@H](CCCCN)NC(=O)[C@@H](NC(=O)[C@@H](NC(=O)[C@H](CCC(=O)O)NC(=O)[C@H](CCC(=O)O)NC(C)=O)C(C)C)[C@@H](C)CC)C(C)C)C(=O)NC[C@H](C)C(=O)NC[C@H](C)C(=O)N[C@@H](CO)C(=O)NCC(=O)N[C@@H](CCSC)C(=O)N[C@@H](CO)C(=O)N[C@H](C(=O)N[C@@H](Cc1c[nH]c2ccccc12)C(=O)N[C@@H](CO)C(=O)N[C@@H](CCCCN)C(=O)N[C@@H](CCCNC(=N)N)C(=O)N[C@@H](CCCCN)C(=O)N[C@@H](CCCCN)C(N)=O)[C@@H](C)O` (HELM PEPTIDE1{[ac].E.E.V.I.K.L.S.G.R.E.L.V.R.A.Q.I.[C[C@@H](CN[*:1])C(=O)[*:2]].[C[C@@H](CN[*:1])C(=O)[*:2]].S.G.M.S.T.W.S.K.R.K.K.[am]}$$$$V2.0), the pEC50 at Relaxin receptor 1 was 7.43. Besides, in test [1], the Emax came out at 94%.
Take `CC[C@H](C)[C@H](NC(=O)[C@H](CCC(N)=O)NC(=O)[C@H](C)NC(=O)[C@H](CCCNC(=N)N)NC(=O)[C@@H](NC(=O)[C@H](CCCCN)NC(=O)[C@H](CCC(=O)O)NC(=O)[C@H](CCCNC(=N)N)NC(=O)CNC(=O)[C@H](CCC(=O)O)NC(=O)[C@H](CC(C)C)NC(C)=O)C(C)C)C(=O)NC[C@H](C)C(=O)NC[C@H](C)C(=O)N[C@@H](CCC(=O)O)C(=O)NCC(=O)N[C@@H](CCSC)C(=O)N[C@@H](CO)C(=O)N[C@H](C(=O)N[C@@H](Cc1c[nH]c2ccccc12)C(=O)N[C@@H](CO)C(=O)N[C@@H](CCCCN)C(=O)N[C@@H](CCCNC(=N)N)C(=O)N[C@@H](CCCCN)C(=O)N[C@@H](CCCCN)C(N)=O)[C@@H](C)O` (HELM PEPTIDE1{[ac].L.E.G.R.E.K.V.R.A.Q.I.[C[C@@H](CN[*:1])C(=O)[*:2]].[C[C@@H](CN[*:1])C(=O)[*:2]].E.G.M.S.T.W.S.K.R.K.K.[am]}$$$$V2.0): the pEC50 at Relaxin receptor 1 was 7.64. Besides, the Emax in test [1] was 99%.
As for `CC[C@H](C)[C@H](NC(=O)[C@H](CCC(N)=O)NC(=O)[C@H](C)NC(=O)[C@H](CCCNC(=N)N)NC(=O)[C@@H](NC(=O)[C@@H](NC(=O)[C@H](CCC(=O)O)NC(=O)[C@H](CCCNC(=N)N)NC(=O)CNC(=O)[C@H](CCC(=O)O)NC(=O)[C@H](CC(C)C)NC(=O)[C@H](CCCCN)NC(=O)[C@@H](NC(=O)[C@@H](NC(C)=O)C(C)C)[C@@H](C)CC)[C@@H](C)CC)C(C)C)C(=O)NC[C@H](C)C(=O)N[C@H](C(=O)N[C@@H](CO)C(=O)NCC(=O)N[C@@H](CCSC)C(=O)N[C@@H](CO)C(=O)N[C@H](C(=O)N[C@@H](Cc1c[nH]c2ccccc12)C(=O)N[C@@H](CO)C(=O)N[C@@H](CCCCN)C(=O)N[C@@H](CCCNC(=N)N)C(=O)N[C@@H](CCCCN)C(=O)N[C@@H](CCCCN)C(N)=O)[C@@H](C)O)[C@@H](C)CC` (HELM PEPTIDE1{[ac].V.I.K.L.E.G.R.E.I.V.R.A.Q.I.[C[C@@H](CN[*:1])C(=O)[*:2]].I.S.G.M.S.T.W.S.K.R.K.K.[am]}$$$$V2.0), the negative logarithm of the EC50 (pEC50) on Relaxin receptor 1 was 6.84. In test [1], the Emax was 102%.
With `CC[C@H](C)[C@H](NC(=O)[C@H](CCC(N)=O)NC(=O)[C@H](C)NC(=O)[C@H](CCCNC(=N)N)NC(=O)[C@@H](NC(=O)[C@H](CC(C)C)NC(=O)[C@H](CCC(=O)O)NC(=O)[C@H](CCCNC(=N)N)NC(=O)CNC(=O)[C@H](CO)NC(=O)[C@H](CC(C)C)NC(=O)[C@H](CCCCN)NC(=O)[C@@H](NC(=O)[C@@H](NC(C)=O)C(C)C)[C@@H](C)CC)C(C)C)C(=O)N[C@@H](C)C(=O)NC[C@H](C)C(=O)N[C@@H](CO)C(=O)NCC(=O)N[C@@H](CCSC)C(=O)N[C@@H](CO)C(=O)N[C@H](C(=O)N[C@@H](Cc1c[nH]c2ccccc12)C(=O)N[C@@H](CO)C(=O)N[C@@H](CCCCN)C(=O)N[C@@H](CCCNC(=N)N)C(=O)N[C@@H](CCCCN)C(=O)N[C@@H](CCCCN)C(N)=O)[C@@H](C)O` (HELM PEPTIDE1{[ac].V.I.K.L.S.G.R.E.L.V.R.A.Q.I.A.[C[C@@H](CN[*:1])C(=O)[*:2]].S.G.M.S.T.W.S.K.R.K.K.[am]}$$$$V2.0), the pEC50 on Relaxin receptor 1 was 6.41. In test [1], the Emax stood at 102%.
